Measurements reported in patent US20060122165A1, “Crystalline cefdinir” (priority 2004, published 2006).

What was measured:
[1] = conversion of crystalline form B into form C on exposure to humidity or aqueous medium; assay type: physicochemical
Excerpt: In another aspect of the invention, crystalline form C of cefdinir can be obtained by conversion of the crystalline form B of cefdinir, obtainable as described in US 2003/0204082 in Example 1, into crystalline form C of cefdinir. Cefdinir form B is in the form of a hydrate.
The equilibrating procedure of step a′) is preferably performed at a relative humidity of about 63% to about 75% , more preferably of about 65% to about 70%, such as of at 65% to 70%. Said equilibration may be performed in a gaseous atmosphere being e.g. air or nitrogen, preferably air having the above mentioned relative humidity. Above about 63% relative humidity, for example cefdinir form B crystals obtainable as described above convert to form C crystals. Form C crystals—once formed—are stable above a relative humidity of at least 45%.

[2] = stability of crystalline form at environmental relative humidity; assay type: physicochemical; details: form maintained as trihydrate

SMILES | relative humidity above which crystals convert to form C ([1]; equilibration in gaseous atmosphere (air or nitrogen)) | time for conversion into crystalline form C ([1]; exposure of pure crystalline form B to a relative humidity of at least about 65%) | time for conversion into crystalline form C ([1]; exposure of pure form B crystals to an aqueous suspending medium, preferably water) | relative humidity of environmental conditions at which the crystal form is stable [2]
C=CC1=C(C(=O)O)N2C(=O)C(NC(=O)C(=NO)c3csc(N)n3)[C@H]2SC1 (stereo partly shown) [crystalline form B of cefdinir, 7-[2-(2-aminothiazol-4-yl)-2-hydroxyiminoacetamido]-3-vinyl-3-cephem-4-carboxylic acid] | Above 63% | within minutes | within seconds | –
C=CC1=C(C(=O)O)N2C(=O)C(NC(=O)C(=NO)c3csc(N)n3)[C@H]2SC1.O.O.O (stereo partly shown) [crystalline form C of cefdinir, 7-[2-(2-aminothiazol-4-yl)-2-hydroxyiminoacetamido]-3-vinyl-3-cephem-4-carboxylic acid trihydrate] | – | – | – | at least 45%
